Data from patent publication US20010009931A1, “Protective varnish for dentin” (priority 1997, published 2001).

Key:
[1] = Leaching test of cured plaques in artificial saliva (Ringer solution), UV/Vis spectroscopy; format: physicochemical
Description: These plaques were light-cured and stored in artificial saliva (Ringer solution) for 20 days at 37° C. By UV/Vis spectroscopy, no triclosan could be found in the artificial saliva.
Again, plaques were made from a mixture of the varnish components except for the solvent ethanol. These plaques were light-cured and stored in artificial saliva (Ringer solution) for 14 days at 37° C. By UV/Vis spectroscopy, some triclosan could be found in the artificial saliva.

bacteria = conditions: long-term experiments; cited from earlier work

Oc1cc(Cl)ccc1Oc1ccc(Cl)cc1Cl [triclosan, 2,4,4′-trichloro-2′-hydroxydiphenyl ether]
triclosan embedded in the plaque leached out ([1]; plaque with 6.25 wt % triclosan based on resin mixture, 20 days at 37° C.): less than 0.1 wt % | leaching of the overall triclosan content of the plaque ([1]; plaque with 40 wt % triclosan, 14 days at 37° C.): 0.2 wt % | development of bacterial resistance (bacteria): no development of bacterial resistance
